Test system: MDA-MB-435 human carcinoma cells
Assay: Intracellular drug delivery of DOX (fluorescence microscopy)
Type: cell-based
Conditions: after 30 min of incubation
Procedure: For in vitro studies, MDA-MB-435 human carcinoma cells were maintained in Dulbecco's Modified Eagle's Medium (DMEM) supplemented with 10% fetal bovine serum (FBS) and 100 μg/ml penicillin-streptomycin. For fluorescence microscopy, the cells (3000 cells per well) were seeded into 8-well chamber slides (Lab-Tek) overnight. The cells were then incubated with 50 μg of MHN or F3-MHN per well for 2 h (for intracellular targeting) and 50 μg of DOX-loaded F3-MHN (0.093 mg DOX per mg MHN) or 4.5 μg of free DOX (equivalent with DOX amount for DOX-loaded F3-MHN) physically mixed with 50 μg of F3-MHN per well for 30 min, 2 h, and 24 h (for intracellular drug delivery) at 37° C. in the presence of 10% FBS. For the intracellular targeting study, the cells were observed without any fixation using an inverted fluorescence microscope (Nikon, Tokyo, Japan). For the intracellular drug delivery study, the cells were fixed with 4% paraformaldehyde for 20 min, mounted in Vectashield Mounting Medium with 4′,6-diamidino-2-phenylindole (DAPI; Vector Laboratories, Burlingame, Calif.), and observed with a fluorescence microscope. […]

SMILES: COc1cccc2c1C(=O)c1c(O)c3c(c(O)c1C2=O)C[C@@](O)(C(=O)CO)C[C@@H]3O[C@H]1C[C@H](N)[C@H](O)[C@H](C)O1 [free DOX, doxorubicin]
- Location of DOX fluorescence signal in cells: almost all of the DOX fluorescence signal was observed in the cell nuclei

— patent US20120059240A1, “METHOD FOR PREPARATION OF MICELLAR HYBRID NANOPARTICLES FOR THERAPEUTIC AND DIAGNOSTIC APPLICATIONS AND COMPOSITIONS THEREOF” (MASSACHUSETTS INSTITUTE OF TECHNOLOGY, priority 2008, published 2012)
